Experimental data as given in patent US11643391B2, “Prodrugs and conjugates of dimethyltryptamine” (priority 2021, dated 2023).

Columns and labels:
[1] = Stability in SGF without pepsin; type: physicochemical
[2] = Stability in SGF with pepsin; type: physicochemical
[3] = Stability in Mouse Plasma; type: in vitro ADME; conditions: for half-life: mouse, plasma
[4] = Table 8, if calculated T½ < 0, T½ reported as 9999 min

## C[N+](C)(CCc1c[nH]c2ccccc12)COP(=O)([O-])O [VLS-02-23]
Stability in PBS pH 6.5; Table 10
  T½: 166.65 h
Stability in PBS pH 6.5; Table 10, 0 min
  Remaining Percentage: 100.00%
Stability in PBS pH 6.5; Table 10, 30 min
  Remaining Percentage: 104.71%
Stability in PBS pH 6.5; Table 10, 60 min
  Remaining Percentage: 106.37%
Stability in PBS pH 6.5; Table 10, 120 min
  Remaining Percentage: 107.29%
Stability in PBS pH 6.5; Table 10, 240 min
  Remaining Percentage: 117.35%
[1]; Table 10
  T½: 166.65 h
[1]; Table 10, 0 min
  Remaining Percentage: 100.00%
[1]; Table 10, 30 min
  Remaining Percentage: 98.76%
[1]; Table 10, 60 min
  Remaining Percentage: 107.08%
[1]; Table 10, 120 min
  Remaining Percentage: 101.90%
[1]; Table 10, 240 min
  Remaining Percentage: 108.80%
[2]; Table 10, 0 min
  Remaining Percentage: 100.00%
[2]; Table 10, 30 min
  Remaining Percentage: 96.70%
[2]; Table 10, 60 min
  Remaining Percentage: 106.43%
[2]; Table 10, 120 min
  Remaining Percentage: 102.36%
[2]; Table 10, 240 min
  Remaining Percentage: 96.82%
[2]; Table 10, read-out: T½
  half-life: 104 h
[3]; Table 11, 0 min
  Remaining Percentage: 100.00%
[3]; Table 11, 15 min
  Remaining Percentage: 114.24%
[3]; Table 11, 30 min
  Remaining Percentage: 110.21%
[3]; Table 11, 60 min
  Remaining Percentage: 109.95%
[3]; Table 11, 120 min
  Remaining Percentage: 91.16%
[3]; Table 11, read-out: T½
  half-life: 568 min

## CC(C)[N+](C)(CCOC(=O)C1c2ccccc2Oc2ccccc21)C(C)C [Propantheline, reference compound]
[3]; Table 9, 0 min
  Remaining Percentage: 100.00%
[3]; Table 9, 15 min
  Remaining Percentage: 85.78%
[3]; Table 9, 30 min
  Remaining Percentage: 70.74%
[3]; Table 9, 60 min
  Remaining Percentage: 29.46%
[3]; Table 9, 120 min
  Remaining Percentage: 8.74%
[3]; Table 11, 0 min
  Remaining Percentage: 100.00%
[3]; Table 11, 15 min
  Remaining Percentage: 80.81%
[3]; Table 11, 30 min
  Remaining Percentage: 64.04%
[3]; Table 11, 60 min
  Remaining Percentage: 34.86%
[3]; Table 11, 120 min
  Remaining Percentage: 9.05%
[3]; Table 9, read-out: T½
  half-life: 32.6 min
[3]; Table 11, read-out: T½
  half-life: 34.1 min

## CC[C@H]1OC(=O)[C@H](C)[C@@H](O[C@H]2C[C@@](C)(OC)[C@@H](O)[C@H](C)O2)[C@H](C)[C@@H](O[C@@H]2O[C@H](C)C[C@H](N(C)C)[C@H]2O)[C@](C)(O)C[C@@H](C)C(=O)[C@H](C)[C@@H](O)[C@]1(C)O [Erythromycin, reference compound]
[1]; Table 8, 0 min
  Remaining Percentage: 100.00%
[1]; Table 8, 30 min
  Remaining Percentage: 52.67%
[1]; Table 8, 60 min
  Remaining Percentage: 28.46%
[1]; Table 8, 120 min
  Remaining Percentage: 8.27%
[1]; Table 8, 240 min
  Remaining Percentage: 1.47%
[1]; [4]
  half-life: 39.5 min
[1]; Table 10, 0 min
  Remaining Percentage: 100.00%
[1]; Table 10, 30 min
  Remaining Percentage: 59.45%
[1]; Table 10, 60 min
  Remaining Percentage: 33.60%
[1]; Table 10, 120 min
  Remaining Percentage: 10.27%
[1]; Table 10, 240 min
  Remaining Percentage: 1.20%
[1]; Table 10, read-out: T½
  half-life: 37.4 min
[2]; Table 8, 0 min
  Remaining Percentage: 100.00%
[2]; Table 8, 30 min
  Remaining Percentage: 56.55%
[2]; Table 8, 60 min
  Remaining Percentage: 37.33%
[2]; Table 8, 120 min
  Remaining Percentage: 14.06%
[2]; Table 8, 240 min
  Remaining Percentage: 2.14%
[2]; [4]
  half-life: 0.727 h
[2]; Table 10, 0 min
  Remaining Percentage: 100.00%
[2]; Table 10, 30 min
  Remaining Percentage: 56.55%
[2]; Table 10, 60 min
  Remaining Percentage: 34.88%
[2]; Table 10, 120 min
  Remaining Percentage: 11.22%
[2]; Table 10, 240 min
  Remaining Percentage: 1.60%
[2]; Table 10, read-out: T½
  half-life: 0.671 h

## CCCCC(=O)Oc1cccc2ccn(CCN(C)C)c12 [VLS-03-1]
Stability in PBS pH 6.5; 0 min
  Peak Area of MRM: 205.0/159.8 (analyte VLS-03-1 Parent): 5.04E+04
Stability in PBS pH 6.5; 30 min
  Peak Area of MRM: 205.0/159.8 (analyte VLS-03-1 Parent): 4.71E+04
Stability in PBS pH 6.5; 60 min
  Peak Area of MRM: 205.0/159.8 (analyte VLS-03-1 Parent): 4.71E+04
Stability in PBS pH 6.5; 120 min
  Peak Area of MRM: 205.0/159.8 (analyte VLS-03-1 Parent): 4.86E+04
Stability in PBS pH 6.5; 240 min
  Peak Area of MRM: 205.0/159.8 (analyte VLS-03-1 Parent): 4.75E+04
Stability in PBS pH 6.5; Table 8, 0 min
  Remaining Percentage: 100.00%
Stability in PBS pH 6.5; Table 8, 30 min
  Remaining Percentage: 96.32%
Stability in PBS pH 6.5; Table 8, 60 min
  Remaining Percentage: 99.71%
Stability in PBS pH 6.5; Table 8, 120 min
  Remaining Percentage: 100.03%
Stability in PBS pH 6.5; Table 8, 240 min
  Remaining Percentage: 101.35%
Stability in PBS pH 6.5; [4]
  T½: 166.65 h
Stability in PBS pH 6.5; VLS-03-1 standard
  Peak Area of MRM: 205.0/159.8 (analyte VLS-03-1 Parent): 4.49E+04
[1]; 0 min
  Peak Area of MRM: 205.0/159.8 (analyte VLS-03-1 Parent): 4.53E+04
[1]; 30 min
  Peak Area of MRM: 205.0/159.8 (analyte VLS-03-1 Parent): 4.75E+04
[1]; 60 min
  Peak Area of MRM: 205.0/159.8 (analyte VLS-03-1 Parent): 4.51E+04
[1]; 120 min
  Peak Area of MRM: 205.0/159.8 (analyte VLS-03-1 Parent): 4.66E+04
[1]; 240 min
  Peak Area of MRM: 205.0/159.8 (analyte VLS-03-1 Parent): 4.57E+04
[1]; Table 8, 0 min
  Remaining Percentage: 100.00%
[1]; Table 8, 30 min
  Remaining Percentage: 106.25%
[1]; Table 8, 60 min
  Remaining Percentage: 99.72%
[1]; Table 8, 120 min
  Remaining Percentage: 104.22%
[1]; Table 8, 240 min
  Remaining Percentage: 103.22%
[1]; [4]
  T½: 166.65 h
[1]; VLS-03-1 standard
  Peak Area of MRM: 205.0/159.8 (analyte VLS-03-1 Parent): 3.75E+04
[2]; 0 min
  Peak Area of MRM: 205.0/159.8 (analyte VLS-03-1 Parent): 5.72E+04
[2]; 30 min
  Peak Area of MRM: 205.0/159.8 (analyte VLS-03-1 Parent): 5.37E+04
[2]; 60 min
  Peak Area of MRM: 205.0/159.8 (analyte VLS-03-1 Parent): 5.01E+04
[2]; 120 min
  Peak Area of MRM: 205.0/159.8 (analyte VLS-03-1 Parent): 5.48E+04
[2]; 240 min
  Peak Area of MRM: 205.0/159.8 (analyte VLS-03-1 Parent): 5.27E+04
[2]; Table 8, 0 min
  Remaining Percentage: 100.00%
[2]; Table 8, 30 min
  Remaining Percentage: 101.74%
[2]; Table 8, 60 min
  Remaining Percentage: 90.49%
[2]; Table 8, 120 min
  Remaining Percentage: 102.16%
[2]; Table 8, 240 min
  Remaining Percentage: 96.47%
[2]; [4]
  half-life: 149 h
[2]; VLS-03-1 standard
  Peak Area of MRM: 205.0/159.8 (analyte VLS-03-1 Parent): 4.22E+04
[3]; Table 9, 0 min
  Remaining Percentage: 100.00%
[3]; Table 9, 15 min
  Remaining Percentage: 0.00%
[3]; Table 9, 30 min
  Remaining Percentage: 0.00%
[3]; Table 9, 60 min
  Remaining Percentage: 0.00%
[3]; Table 9, 120 min
  Remaining Percentage: 0.00%
